Several values for one entry are separate records, joined by “and”; a condition that tells them apart may be missing. Equal entries are not always repeated. Where two headings read alike, the source gives them in different places.
Experiments:
cabbage looper [1] = assay: whole plant or invertebrate; conditions: Trichoplusia ni, foliar
tobacco budworm [2] = conditions: for LT50 (95% confidence intervals) in days: in vivo; for % Mort. Chem. / LT50 Chem.: tobacco budworm; for % Mort. Chem.: 1 DAT
tobacco budworm [3] = assay: whole plant or invertebrate; conditions: Heliothis virescens, foliar
Yersinia entomophaga = assay: CFU counts after exposure of Yersinia entomophaga to insecticides; type: cell-based; conditions: 1 hour contact
Procedure, shortened: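 Insecticides at 1× (label-rate based) and 5× or 10× amounts were dried from ethyl acetate as a coat inside tubes. Diluted LB-grown Y. entomophaga culture (1 ml) was added and held 1 hour on the bench. Then 100 μl was plated in triplicate on LB and colonies were counted after 48 hours at 25° C.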

cabbage looper [4] = system: cabbage looper
corn earworm = assay: Leaf disk mortality assay, Y. entomophaga cells with chemical insecticides; type: in vivo; parameters: mortality: dose or concentration left out as unconfirmed; conditions: for % Mort. Chem. / LT50 Chem.: corn earworm
Method: (§1) 50 μl suspensions of either acetone (controls and Y. entomophaga alone treatments) or of thiodicarb (Sigma 34375) at a concentration of 140 mg/L in acetone were then dropped onto each cabbage disk. These were set to dry for 1 hr. After the disks had dried, one 2nd instar corn earworm was added to each disk. A total of 12 insects were evaluated for each treatment.
as §1, with “chlorantraniliprole” for “thiodicarb”, “32510)” for “34375)”, “18” for “140”, “24” for “12”

diamondback moth [5] = assay: as above; conditions: in vivo
cabbage looper [6] = conditions: spinosad 7.5 mg/L
Method: (§3) To produce cell free filtrates, cultures of Yersinia entomophaga grown in LB medium were centrifuged at 11,448 (g) for 10 minutes. The supernatant was decanted from the centrifuged pellet and filtered through a 0.22 μm filter. Assays were performed to determine concentrations of Yen-TC (toxin complex) using ELISA, and chitinase by measuring chitinase activity on specific substrates. […] This was done to estimate relative potency of the cell free filtrates. Insects were first pre-screened with a range of dilutions of cell free filtrates to select a concentration that provided moderate activity. […] Based on these initial screens, undiluted cell free filtrate was used for cabbage looper, fall armyworm, black cutworm, and Colorado potato beetle. […] In each of the Examples below, this is expressed as 1%.
Cabbage leaf disks were dipped in either acetone (controls and Y. entomophaga alone treatments) or novaluron (Sigma 32419) at 1.0 mg/L in acetone. These were set to dry for 1 hr. […] After the cabbage disks had dried for 1 hr, a single 3rd instar cabbage looper was added to each individual cabbage disk. A total of 20 insects were evaluate for each treatment. Insects were observed daily and scored as live or dead.

diamondback moth [7] = assay: whole plant or invertebrate; conditions: spinosad […]
From the text: (§2) These were set to dry for 1 hr.
as §2
These were set to dry for 1 hr. Cabbage disks were then dipped in either 1% Luria broth (LB) media solution (controls and thiacloprid alone treatments) or in 1% cell free filtrate from a culture Y. entomophaga isolate O24G3R (Y. entomophaga alone or in combination with thiacloprid treatments).

diamondback moth [8] = conditions: in vivo
Colorado potato beetle [9] = assay: Tomato leaf disk mortality assay, Y. entomophaga cells with chemical insecticides
Colorado potato beetle [10] = conditions: in vivo
fall armyworm [11] = assay: Leaf disk mortality assay, Y. entomophaga cells with chemical insecticides
fall armyworm [12] = conditions: in vivo
Colorado potato beetle [13] = conditions: spinosad […]
Method: as §3
Tomato leaf disks were dipped in either acetone (controls and Y. entomophaga alone treatments) or thiacloprid (Sigma 37905) at 1 mg/L in acetone. These were set to dry for 1 hr. […] After the tomato disks had dried for 1 hr, a single 3rd instar Colorado potato beetle was added to each individual cabbage disk. A total of 20 insects were evaluate for each treatment. Insects were observed daily and scored as live or dead.

[14] = 24 h, read-out: % Mortality (1DAT)
[15] = 48 h, read-out: % Mortality (2DAT)
[16] = Chlorantraniliprole alone 18 mg/L
[17] = 3rd instar, spinosad 25 mg/L, isolate O24G3R 1×10^5 cfu/mL
[18] = 3rd instar, spinosad 25 mg/L, isolate O348UX 1×10^5 cfu/mL

## CNC(=O)c1cc(Cl)cc(C)c1NC(=O)c1cc(Br)nn1-c1ncccc1Cl [Chlorantraniliprole]
Cabbage looper [1]; [14]
  mortality at 18 µg/mL: 8%
Cabbage looper [1]; [15]
  mortality at 18 µg/mL: 38%
Tobacco budworm [2]
  LT50 (95% confidence intervals) in days: 2.20 (1.91-2.53) days
Tobacco budworm [2]; Chlorantraniliprole 18 mg/L
  % Mort. Chem.: 8%
Tobacco budworm [2]; [16]
  LT50 Chem.: 2.20 days
Tobacco budworm [3]; [14]
  mortality at 18 µg/mL: 8%
Tobacco budworm [3]; [15]
  mortality at 18 µg/mL: 25%
Yersinia entomophaga; 0.15 mg insecticide
  Average CFU: 523 CFU
Yersinia entomophaga; 2.0 mg insecticide
  Average CFU: 387 CFU
Cabbage looper [4]; cabbage looper, Chlorantraniliprole 18 mg/L, 1 DAT
  % Mort. Chem.: 8%
Cabbage looper [4]; cabbage looper, Chlorantraniliprole alone 18 mg/L
  LT50 Chem.: 2.39 days
Cabbage looper [4]; in vivo
  % Mort. Chem.: 38%
  LT50 (95% confidence intervals) in days: 2.39 (2.10-2.70) days
Corn earworm; 2nd instar, chlorantraniliprole 18 mg/L, isolate O43NEW 1×10^5 cfu/mL
  LT50 (95% confidence intervals) in days: 3.29 (2.85-3.77) days
Corn earworm; Helicoverpa zea, foliar, 24 h, 2nd instar, chlorantraniliprole 18 mg/L, isolate O43NEW 1×10^5 cfu/mL, read-out: % Mortality (1DAT)
  mortality at 18 µg/mL: 0%
Corn earworm; Helicoverpa zea, foliar, 48 h, 2nd instar, chlorantraniliprole 18 mg/L, isolate O43NEW 1×10^5 cfu/mL, read-out: % Mortality (2DAT)
  mortality at 18 µg/mL: 0%
Corn earworm; Chlorantraniliprole 18 mg/L, 2 DAT (row with O43NEW 1 × 10^3)
  % Mort. Chem.: 0%
Corn earworm; Chlorantraniliprole 18 mg/L, 2 DAT (row with O43NEW 1 × 10^5)
  % Mort. Chem.: 0%
Corn earworm; [16]
  LT50 Chem.: 3.29 days and 3.44 days

## CS/C(C)=N\OC(=O)N(C)SN(C)C(=O)O/N=C(\C)SC [Thiodicarb]
Cabbage looper [1]; [14]
  mortality at 140 µg/mL: 25%
Cabbage looper [1]; [15]
  mortality at 140 µg/mL: 50%
Tobacco budworm [2]
  LT50 (95% confidence intervals) in days: 1.98 (1.57-2.45) days
Tobacco budworm [2]; Thiodicarb 140 mg/L
  % Mort. Chem.: 25%
Tobacco budworm [2]; Thiodicarb alone 140 mg/L
  LT50 Chem.: 1.98 days
Tobacco budworm [3]; [14]
  mortality at 140 µg/mL: 25%
Tobacco budworm [3]; [15]
  mortality at 140 µg/mL: 50%
Cabbage looper [4]; cabbage looper, Thiodicarb alone 140 mg/L
  LT50 Chem.: 1.40 days
Cabbage looper [4]; in vivo
  % Mort. Chem.: 25%
  LT50 (95% confidence intervals): 1.40 days
Corn earworm; 2nd instar, thiodicarb 140 mg/mL, isolate O43NEW 1×10^7 cfu/mL
  LT50 (95% confidence intervals) in days: 2.02 (1.60-2.50) days
Corn earworm; Helicoverpa zea, foliar, 24 h, 2nd instar, thiodicarb, isolate O43NEW 1×10^7 cfu/mL, read-out: % Mortality (1DAT)
  mortality: 0%
Corn earworm; Thiodicarb 140 mg/L, 1 DAT
  % Mort. Chem.: 0%
Corn earworm; Thiodicarb 140 mg/L, 2 DAT
  % Mort. Chem.: 33%
Corn earworm; Thiodicarb alone 140 mg/L
  LT50 Chem.: 2.02 days

## Spinosad
Diamondback moth [5]
  LT50 (95% confidence intervals): 8.16 days
  LT50 Chem.: 8.16 days
Cabbage looper [6]; 3rd instar cabbage looper, O43NEW undiluted filtrate, alone or combined, 2 DAT, Abbott's corrected
  % Mortality (2DAT): 10%
Cabbage looper [6]; 3rd instar cabbage looper, O43NEW undiluted filtrate, alone or combined, 5 DAT, Abbott's corrected
  % Mortality (5DAT): 25%
Cabbage looper [6]; 3rd instar cabbage looper, O43NEW undiluted filtrate, alone or combined, 6 DAT, Abbott's corrected
  % Mortality (6DAT): 50%
Cabbage looper [6]; 3rd instar cabbage looper, O43NEW undiluted filtrate, alone or combined, 8 DAT, Abbott's corrected
  % Mortality (8DAT): 55%
Cabbage looper [6]; 3rd instar cabbage looper, O43NEW undiluted filtrate, alone or combined, 9 DAT, Abbott's corrected
  % Mortality (9DAT): 55%
Cabbage looper [6]; Cabbage Looper
  LT50 Chem.: 7.01 days
Cabbage looper [6]; Cabbage Looper, 5 DAT
  % Mort. Chem.: 25%
Diamondback moth [7]; 2nd instar diamondback moth, O43NEW filtrate 1%, alone or combined
  LT50 (95% confidence intervals): 8.16 days
Diamondback moth [7]; Diamondback moth
  LT50 Chem.: 8.16 days
Diamondback moth [8]
  % Mortality (2DAT): 0%
  % Mortality (3DAT): 10%
  % Mortality (4DAT): 15%
  % Mortality (7DAT): 40%
  % Mortality (9DAT): 39%
  % Mortality (11DAT): 65%
Colorado potato beetle [9]; Colorado potato beetle, Spinosad alone […]
  LT50 Chem.: 6.01 days
Colorado potato beetle [9]; in vivo
  LT50 (95% confidence intervals) in days: 6.01 (4.93-7.28) days
Colorado potato beetle [10]
  % Mortality (3DAT): 15%
  % Mortality (4DAT): 20%
  % Mortality (5DAT): 40%
Yersinia entomophaga; 0.2 mg insecticide
  Average CFU: 523 CFU
Yersinia entomophaga; 1.0 mg insecticide
  Average CFU: 487 CFU
Fall armyworm [11]; [17]
  % Mortality (3DAT): 80%
  LT50 (95% confidence intervals) in days: 2.43 (2.08-2.84) days
Fall armyworm [11]; [18]
  % Mortality (3DAT): 80%
  LT50 (95% confidence intervals) in days: 2.43 (2.08-2.84) days
Fall armyworm [11]; fall armyworm, Spinosad 25 mg/L, 3 DAT (row with 024G3R)
  % Mort. Chem.: 80%
Fall armyworm [11]; fall armyworm, Spinosad 25 mg/L, 3 DAT (row with O348UX)
  % Mort. Chem.: 80%
Fall armyworm [11]; fall armyworm, Spinosad alone 25 mg/L
  LT50 Chem.: 4.09 days and 2.43 days
Fall armyworm [11]; in vivo
  % Mort. Chem.: 40%
  LT50 (95% confidence intervals) in days: 4.09 (3.67-4.55) days
Fall armyworm [12]
  % Mortality (3DAT): 40%
Colorado potato beetle [13]; 3rd instar Colorado potato beetle, O43NEW undiluted filtrate, alone or combined
  LT50 (95% confidence intervals): 78.3 days
Colorado potato beetle [13]; Colorado potato beetle
  LT50 Chem.: 78.30 days

From patent US11716994B2, “Combinations of Yersinia entomophaga and pesticides or other substances” (priority 2017, dated 2023)
